Source: PMC7576608, “Mechanisms of telomerase inhibition by oxidized and therapeutic dNTPs” (Nature Communications, 2020)
Where “and” joins values, the source holds several entries; their conditions need not be identical. Equal values may be shown once. Read-outs that look alike come from different tables or passages of the source.

Biological target: telomerase (Homo sapiens, UniProt O14746)
Test: Telomerase repeat processivity IC50: modified dNTP titrated into reactions with all four natural dNTPs
Assay type: biochemical
Set-up: made in house; anti-FLAG immunopurification, eluted with 3xFLAG peptide
In short: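 Immunopurified human telomerase reactions with cellular-relevant levels of all four natural dNTPs plus modified dNTP titrated 0–10,000 μM, 1 h at 37 °C; products resolved on denaturing gels and phosphorimaged. Repeat processivity R1/2 = −ln(2)/slope of ln(100−%LB) vs repeat number; IC50 is concentration halving bulk repeat processivity.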

[1] = dose-response fit of processivity R 1/2, individual replicates
[2] = dose-response fit of processivity R 1/2 vs log(concentration), individual replicates

Sequence of telomerase (O14746 whole entry): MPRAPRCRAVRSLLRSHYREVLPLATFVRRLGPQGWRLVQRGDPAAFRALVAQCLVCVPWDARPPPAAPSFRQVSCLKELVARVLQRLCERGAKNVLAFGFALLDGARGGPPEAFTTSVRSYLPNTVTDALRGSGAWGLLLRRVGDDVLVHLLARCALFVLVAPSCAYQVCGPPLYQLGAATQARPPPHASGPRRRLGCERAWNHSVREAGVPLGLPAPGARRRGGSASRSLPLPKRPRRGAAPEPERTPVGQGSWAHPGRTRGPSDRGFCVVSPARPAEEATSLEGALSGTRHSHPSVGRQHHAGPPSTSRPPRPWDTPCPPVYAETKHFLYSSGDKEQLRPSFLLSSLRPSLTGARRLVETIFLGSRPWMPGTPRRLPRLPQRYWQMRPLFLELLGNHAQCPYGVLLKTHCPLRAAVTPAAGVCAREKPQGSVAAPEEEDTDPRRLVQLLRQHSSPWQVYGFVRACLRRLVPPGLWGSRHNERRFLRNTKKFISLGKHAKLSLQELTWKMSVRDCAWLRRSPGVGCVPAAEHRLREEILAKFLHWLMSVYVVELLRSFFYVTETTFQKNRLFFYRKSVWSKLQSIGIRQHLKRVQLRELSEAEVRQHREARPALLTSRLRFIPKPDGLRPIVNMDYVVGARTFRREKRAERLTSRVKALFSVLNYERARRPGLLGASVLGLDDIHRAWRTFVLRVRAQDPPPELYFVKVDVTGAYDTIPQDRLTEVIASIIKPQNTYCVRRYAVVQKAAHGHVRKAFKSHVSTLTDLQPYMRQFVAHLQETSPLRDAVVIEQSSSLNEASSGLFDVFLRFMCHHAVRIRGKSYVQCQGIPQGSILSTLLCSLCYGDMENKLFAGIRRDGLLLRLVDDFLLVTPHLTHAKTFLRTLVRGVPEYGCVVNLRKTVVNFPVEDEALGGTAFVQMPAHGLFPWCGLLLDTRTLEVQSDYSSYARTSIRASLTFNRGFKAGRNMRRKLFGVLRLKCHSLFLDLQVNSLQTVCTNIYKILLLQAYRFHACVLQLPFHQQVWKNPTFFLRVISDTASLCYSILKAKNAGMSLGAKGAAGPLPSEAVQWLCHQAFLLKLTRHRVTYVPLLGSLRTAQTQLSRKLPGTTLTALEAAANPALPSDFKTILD

## O=c1[nH]cnc2c1ncn2C1CCC(COP(=O)(O)OP(=O)(O)OP(=O)(O)O)O1 (stereo not drawn) [ddITP]
Cellular relevant natural dNTPs, modified dNTP titrated 0 to 10,000 μM, based on repeat processivity, mean ± SD, read-out: Telomerase processivity IC50
  IC50: 61 ± 23 µM
ddITP 31μM
  YIntercept (line fit of ln(100-%LB) vs # telomere repeats): 3.68 and 3.90 and 3.32
ddITP 31μM, telomere repeat 1
  ln(100-%LB): 3.63 and 3.77 and 3.47
ddITP 31μM, telomere repeat 2
  ln(100-%LB): 2.96 and 3.17 and 2.59
ddITP 31μM, telomere repeat 3
  ln(100-%LB): 2.31 and 2.52 and 1.69
ddITP 31μM, telomere repeat 4
  ln(100-%LB): 1.98 and 2.18 and 1.18
ddITP 62μM
  YIntercept (line fit of ln(100-%LB) vs # telomere repeats): 4.03 and 4.15
ddITP 62μM, telomere repeat 1
  ln(100-%LB): 3.64 and 3.75
ddITP 62μM, telomere repeat 2
  ln(100-%LB): 2.81 and 2.79
ddITP 62μM, telomere repeat 3
  ln(100-%LB): 1.96 and 1.84
ddITP 62μM, telomere repeat 4
  ln(100-%LB): 1.44 and 1.17
ddITP 62μM, telomere repeat 5
  ln(100-%LB): 0.94 and 0.56
ddITP 250μM
  YIntercept (line fit of ln(100-%LB) vs # telomere repeats): 4.62 and 3.98
ddITP 250μM, telomere repeat 1
  ln(100-%LB): 3.84 and 3.61
ddITP 250μM, telomere repeat 2
  ln(100-%LB): 2.72 and 2.32
ddITP 250μM, telomere repeat 3
  ln(100-%LB): 1.42 and 1.15
ddITP 250μM, telomere repeat 4
  ln(100-%LB): 0.59 and 0.39
ddITP 500μM
  Slope (line fit of ln(100-%LB) vs # telomere repeats): -0.95
  YIntercept (line fit of ln(100-%LB) vs # telomere repeats): 4.49
ddITP 500μM, telomere repeat 1
  ln(100-%LB): 3.63 and 3.72
ddITP 500μM, telomere repeat 2
  ln(100-%LB): 2.49 and 2.52
ddITP 500μM, telomere repeat 3
  ln(100-%LB): 1.54 and 1.27
ddITP 500μM, telomere repeat 4
  ln(100-%LB): 0.70 and 0.51
ddITP 750μM
  YIntercept (line fit of ln(100-%LB) vs # telomere repeats): 4.67 and 4.49
ddITP 750μM, telomere repeat 1
  ln(100-%LB): 3.72 and 3.79
ddITP 750μM, telomere repeat 2
  ln(100-%LB): 2.57 and 2.74
ddITP 750μM, telomere repeat 3
  ln(100-%LB): 1.55 and 1.58
ddITP 750μM, telomere repeat 4
  ln(100-%LB): 0.67 and 0.79
ddITP 1000μM
  YIntercept (line fit of ln(100-%LB) vs # telomere repeats): 4.63 and 4.20
ddITP 1000μM, telomere repeat 1
  ln(100-%LB): 3.82 and 3.80
ddITP 1000μM, telomere repeat 2
  ln(100-%LB): 3.01 and 3.04
ddITP 1000μM, telomere repeat 3
  ln(100-%LB): 2.22 and 2.25
ddITP 1000μM, telomere repeat 4
  ln(100-%LB): 1.56 and 1.76
ddITP 1000μM, telomere repeat 5
  ln(100-%LB): 0.86 and 1.29
ddITP 1500
  Slope (line fit of ln(100-%LB) vs # telomere repeats): -0.86
  YIntercept (line fit of ln(100-%LB) vs # telomere repeats): 4.62 and 4.48
ddITP 1500, telomere repeat 1
  ln(100-%LB): 3.74 and 3.65
ddITP 1500, telomere repeat 2
  ln(100-%LB): 2.90 and 2.79
ddITP 1500, telomere repeat 3
  ln(100-%LB): 2.03 and 1.76
ddITP 1500, telomere repeat 4
  ln(100-%LB): 1.25 and 1.21
ddITP 1500, telomere repeat 5
  ln(100-%LB): 0.25 and 0.17
[1]
  Best-fit values HillSlope: -1.214 and -1.087 and -1.6
  Best-fit values Span: 1.373 and 2.642 and 1.489
dose-response fit of processivity R 1/2, log of concentration in μM, individual replicates
  Best-fit values LogIC50: 1.601 and 1.931 and 1.751
[2]
  Best-fit values Bottom: 0.6806 and 0.1353 and 0.7679
  Best-fit values Top: 2.054 and 2.778 and 2.257
Log of processivity IC50 (concentration in μM), Supplementary Fig 8b, read-out: Log IC50 (converted)
  IC50: 63.1 µM
Modified dNTP concentration 31.25 μM, individual replicates n1-n3
  Processivity R 1/2: 1.52 and 2.08 and 1.82
Modified dNTP concentration 62.5 μM, individual replicates
  Processivity R 1/2: 1.13 and 1.82
Modified dNTP concentration 250 μM, individual replicates
  Processivity R 1/2: 0.87 and 0.71
Modified dNTP concentration 500 μM, individual replicates
  Processivity R 1/2: 0.8 and 0.73 (2×)
Modified dNTP concentration 750 μM, individual replicates
  Processivity R 1/2: 0.8 and 0.49
Modified dNTP concentration 1000 μM, individual replicates
  Processivity R 1/2: 0.69 (2×) and 0.47
Modified dNTP concentration 1500 μM, individual replicates
  Processivity R 1/2: 0.81 and 0.26 and 0.88
Modified dNTP concentration 2000 μM, individual replicates
  Processivity R 1/2: 0.45 and 0 and 0.81
Repeat processivity R 1/2, individual replicates N1-N3, read-out: Best-fit values IC50
  IC50: 39.9 µM and 85.3 µM and 56.4 µM
Repeat processivity R 1/2, mean of replicates, read-out: Mean IC50
  IC50: 60.5 µM
